Here are results for one molecule from patent publication US20070043108A1, “Use of equol for ameliorating or preventing neuropsychiatric and neurodegenerative diseases or disorders” (priority 2002, published 2007).

What all share (format): in vivo, rat
In data set [1] the test system is mid-aged Long-Evans female rats. As to the kind of experiment: Example 17: Porsolt forced swim test and body weight in mid-aged female rats. The protocol:
The female rats were exposed (from time of conception) to either a phytoestrogen-rich (Phyto-600) or a phytoestrogen-free (Phyto-free) diet.
At 12 months of age, the animals were analyzed using the Porsolt forced swim test that is a standard preclinical test with applications to humans for investigating the neurobiology of depression and of action of antidepressant agent (R. D. Porsolt, M. Pichon and M Jalfre, Nature 266: 730-732, 1977; and M. A. Geyer & A. Markou, in Psychopharmacology: The Fourth Generation of Progress, NY, Raven Press, pp. 787-798, 1995).
The test is designed to force rats to swim vigorously. Over time, some of the animals may become immobile which is considered a condition of behavioral despair. The total time an animal is immobile is an index of despair or depression. […] S. Hall, J. Comp. Psych., 18: 385-403, 1934), increased boli numbers during the test would indicate heighten emotional behavior. All of these parameters were recorded in this study and quantified by AnyMaze® computer software and the total time of the Porsolt forced swim test was 480 seconds or 8 minutes.
The animals were tested twice.
Test 1 compared diet exposure alone, shown as A in FIGS. 58-69 and labeled as “before equol injections.”
In the second stage of testing the Phyto-free fed females were injected with equol@ […] or 2.5 mg/kg via subcutaneous administration) for 8 days while the Phyto-600 fed females received dimethylsulfoxide (DMSO) vehicle control injections. (DMSO has been used in medicine due to its ability to penetrate deeply through the skin and other membranes without damaging them and ability to carry compounds into the circulation).
Test 2 assessed depressive behaviors following the equol treatments, shown as B in FIGS. 58-69 and labeled as “after equol injections.”

Another data set deals with GDX males. As to the kind of experiment: Examples 5 and 6: gonadectomized (GDX) male rats treated with DHTP, equol or both; histology.
In a further data set the test system is intact males. As to the kind of experiment: Example 2: tissue weights from intact males given sc injections of racemic equol. Particulars: sc once/day for 7 days.
The mark [2] stands for this setting: Test 2, Phyto-free females after equol for 8 days.

In the case of `Oc1ccc(C2COc3cc(O)ccc3C2)cc1` (racemic) [equol, 7-hydroxy-3(4′hydroxyphenyl)-chroman], the total distance traveled result in data set [1] (Test 2, Phyto-free females after equol 5 mg/day sc for 8 days) was “increased and similar to control values”. Moreover, in data set [1] (setting [2]), the number of boli entry is reported as “reduced after equol treatments”; the number of dives result was “significantly reduced and comparable to control levels”; the total time immobile entry is “significantly reduced and similar to controls”. For the same molecule, in data set [1] (Test 2, after vs before equol injections), the total time mobile result is listed as “significantly increased”. In data set [1] (after the 8 day treatment interval), the “decrease in body weight over controls” value is given as 2.6 fold. For the same molecule, in data set [1] (mid-aged females, end of 8 day treatment, ±SEM), the “Body Weight Loss (grams)” value is on record as −31.2 (±4.8*) grams. The “epididymal histology (H&E)” value in the data set on GDX males (intact males vs control males) was “overall smaller ducts”. For the same molecule, the “prostate histology (H&E)” value in the data set on GDX males (intact males vs intact control) is “involution and consist of more closely spaced, atrophic glands”. In the data set on intact males, the “Body (g)” value was 418.0 (±7.52) g, the “Epididymis (g)” value is reported as 1.59 (±0.06) g, the “Pituitary (g)” value is listed as 0.014 (±0.002) g and the “Prostate (g)” value is 0.38 (±0.06) g. In the data set with intact males, the “Testes (g)” value was 3.48 (±0.08) g.
